Data from PubChem BioAssay (NCI).
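All cell lines were grown in 96-well plates and treated with compound for 48 hours. GI50 is the concentration that inhibits growth by half. TGI: total growth inhibition.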

Legend:
Experiment in all cases: NCI anticancer screen, dose series, 48 h
[1] = system: HCT-116 colon
[2] = system: K-562 leukemia
[3] = system: SNB-75 CNS
[4] = system: DU-145 prostate
[5] = system: BT-549 breast
[6] = system: SNB-19 CNS
[7] = system: HCT-15 colon
[8] = system: HCC-2998 colon
[9] = system: CCRF-CEM leukemia
[10] = system: HS 578T breast
[11] = system: SK-OV-3 ovarian
[12] = system: MDA-MB-231 breast
[13] = system: M14 melanoma
[14] = system: UO-31 renal
[15] = system: SW-620 colon
[16] = system: MOLT-4 leukemia
[17] = system: NCI-H522 lung
[18] = system: KM12 colon
[19] = system: OVCAR-4 ovarian
[20] = system: SN12C renal
[21] = system: NCI-H226 lung
[22] = system: A549 NSCLC
[23] = system: U251 CNS
[24] = system: MDA-MB-435
[25] = system: NCI-H460 lung
[26] = system: MCF7 breast
[27] = system: RPMI-8226 leukemia
[28] = system: RXF 393 renal
[29] = system: MALME-3M melanoma
[30] = system: SK-MEL-28 melanoma
[31] = system: SF-295 CNS
[32] = system: PC-3 prostate
[33] = system: SK-MEL-5 melanoma
[34] = system: ACHN renal
[35] = system: COLO 205 colon
[36] = system: UACC-62 melanoma
[37] = system: OVCAR-8 ovarian
[38] = system: LOX IMVI melanoma
[39] = system: NCI/ADR-RES ovarian
[40] = system: HOP-62 NSCLC
[41] = system: HT29 colon
[42] = system: 786-0 renal
[43] = system: SF-268 CNS
[44] = system: CAKI-1 renal
[45] = system: NCI-H23 lung
[46] = system: SF-539 CNS
[47] = system: OVCAR-3 ovarian
[48] = system: TK-10 renal
[49] = system: OVCAR-5 ovarian
[50] = system: IGROV1 ovarian
[51] = system: SR leukemia
[52] = system: T-47D breast
[53] = system: SK-MEL-2 melanoma
[54] = system: HL-60(TB) leukemia
[55] = system: HOP-92 NSCLC
[56] = system: EKVX NSCLC
[57] = system: UACC-257 melanoma
[58] = system: A498 renal

CCOC(=O)c1c(C)c2c(n1Cc1ccccc1)CSCC2=O
GI50 [1]: 11.8 µM | TGI [1]: 31.9 µM | GI50 [2]: 21.7 µM | TGI [2]: > 100 µM | GI50 [3]: 18.4 µM | TGI [3]: > 100 µM | GI50 [4]: 21.9 µM | TGI [4]: > 100 µM | GI50 [5]: 21 µM | TGI [5]: 77.6 µM | GI50 [6]: 14.2 µM | TGI [6]: > 100 µM | GI50 [7]: 19.7 µM | TGI [7]: > 100 µM | GI50 [8]: 25.4 µM | TGI [8]: > 100 µM | GI50 [9]: 29.9 µM | TGI [9]: > 100 µM | GI50 [10]: 10.8 µM | TGI [10]: 53.3 µM | GI50 [11]: 23.8 µM | TGI [11]: > 100 µM | GI50 [12]: 14.7 µM | TGI [12]: 51.2 µM | GI50 [13]: 20 µM | TGI [13]: 56.3 µM | GI50 [14]: 13.5 µM | TGI [14]: > 100 µM | GI50 [15]: 17.4 µM | TGI [15]: 47 µM | GI50 [16]: 12.2 µM | TGI [16]: 51.9 µM | GI50 [17]: 14.8 µM | TGI [17]: 58.8 µM | GI50 [18]: 15 µM | TGI [18]: 37.9 µM | GI50 [19]: 17.4 µM | TGI [19]: > 100 µM | GI50 [20]: 26 µM | TGI [20]: > 100 µM | GI50 [21]: 20.2 µM | TGI [21]: 89.1 µM | GI50 [22]: 30.6 µM | TGI [22]: > 100 µM | GI50 [23]: 22.4 µM | TGI [23]: > 100 µM | GI50 [24]: 17.3 µM | TGI [24]: 39.1 µM | GI50 [25]: 20.4 µM | TGI [25]: 55.1 µM | GI50 [26]: 17.7 µM | TGI [26]: 44.7 µM | GI50 [27]: 14.4 µM | TGI [27]: > 100 µM | GI50 [28]: 16.2 µM | TGI [28]: 70.6 µM | GI50 [29]: 17.5 µM | TGI [29]: 49.2 µM | GI50 [30]: 22.2 µM | TGI [30]: 55.7 µM | GI50 [31]: 18 µM | TGI [31]: 49.5 µM | GI50 [32]: 13.6 µM | TGI [32]: 68.1 µM | GI50 [33]: 11.6 µM | TGI [33]: 23.9 µM | GI50 [34]: 18.8 µM | TGI [34]: > 100 µM | GI50 [35]: 20.3 µM | TGI [35]: 48.8 µM | GI50 [36]: 10.3 µM | TGI [36]: 29.9 µM | GI50 [37]: 27.6 µM | TGI [37]: > 100 µM | GI50 [38]: 14.8 µM | TGI [38]: 50.9 µM | GI50 [39]: 16.7 µM | TGI [39]: 51.4 µM | GI50 [40]: 22.9 µM | TGI [40]: 63.5 µM | GI50 [41]: 18.7 µM | TGI [41]: > 100 µM | GI50 [42]: 24.1 µM | TGI [42]: 63.1 µM | GI50 [43]: 19.3 µM | TGI [43]: > 100 µM | GI50 [44]: 11 µM | TGI [44]: 52.2 µM | GI50 [45]: 17.2 µM | TGI [45]: 63.8 µM | GI50 [46]: 17.5 µM | TGI [46]: 50.9 µM | GI50 [47]: 17.5 µM | TGI [47]: 46.2 µM | GI50 [48]: 27.3 µM | TGI [48]: 81.4 µM | GI50 [49]: 20.9 µM | TGI [49]: 89.1 µM | GI50 [50]: 16.9 µM | TGI [50]: > 100 µM | GI50 [51]: 7.06 µM | TGI [51]: > 100 µM | GI50 [52]: 7.04 µM | TGI [52]: 45.3 µM | GI50 [53]: 18.4 µM | TGI [53]: 45.7 µM | GI50 [54]: 18.8 µM | TGI [54]: 54.1 µM | GI50 [55]: 1.21 µM | TGI [55]: 19.8 µM | GI50 [56]: 16.3 µM | TGI [56]: > 100 µM | GI50 [57]: 26.9 µM | TGI [57]: 94.1 µM

COc1cccc2c1O/C(=C\c1ccc([N+](=O)[O-])s1)C2=O
GI50 [1]: 2.04 µM | TGI [1]: > 100 µM | GI50 [2]: 0.349 µM | TGI [2]: 3.05 µM | GI50 [3]: 2.33 µM | TGI [3]: > 32.5 µM | GI50 [4]: > 23.9 µM | TGI [4]: > 100 µM | GI50 [5]: 1.68 µM | TGI [5]: 3.27 µM | GI50 [6]: 4.21 µM | TGI [6]: > 100 µM | GI50 [7]: 0.474 µM | TGI [7]: 2.34 µM | GI50 [8]: 4 µM | TGI [8]: > 100 µM | GI50 [9]: 1.25 µM | TGI [9]: > 23.4 µM | GI50 [10]: 2.99 µM | TGI [10]: > 32.1 µM | GI50 [11]: > 83.9 µM | TGI [11]: > 100 µM | GI50 [12]: 1.25 µM | TGI [12]: 2.92 µM | GI50 [13]: 3.06 µM | TGI [13]: > 100 µM | GI50 [14]: 1.08 µM | TGI [14]: 3.9 µM | GI50 [15]: 0.46 µM | TGI [15]: 1.75 µM | GI50 [17]: 0.241 µM | TGI [17]: 0.766 µM | TGI [19]: > 100 µM | GI50 [21]: > 80.6 µM | TGI [21]: > 100 µM | GI50 [22]: 3.29 µM | TGI [22]: > 100 µM | GI50 [23]: 2.42 µM | TGI [23]: > 20.3 µM | GI50 [25]: 4.34 µM | TGI [25]: > 100 µM | GI50 [26]: 2.04 µM | TGI [26]: > 100 µM | GI50 [27]: 1.7 µM | TGI [27]: > 20.6 µM | GI50 [28]: 2.6 µM | TGI [28]: > 25.3 µM | GI50 [31]: > 90.5 µM | TGI [31]: > 100 µM | GI50 [32]: 1.7 µM | TGI [32]: > 21.3 µM | GI50 [33]: 2.49 µM | TGI [33]: > 100 µM | GI50 [34]: 2.79 µM | TGI [34]: > 100 µM | GI50 [35]: 5.15 µM | TGI [35]: > 100 µM | GI50 [36]: 1.36 µM | TGI [36]: 3.23 µM | GI50 [37]: 2.54 µM | TGI [37]: > 24.9 µM | GI50 [38]: 3.15 µM | TGI [38]: > 100 µM | GI50 [58]: > 100 µM | TGI [58]: > 100 µM | GI50 [39]: 3.92 µM | TGI [39]: > 100 µM | TGI [40]: > 100 µM | GI50 [41]: 10.3 µM | TGI [41]: 21.9 µM | GI50 [42]: > 20.6 µM | TGI [42]: > 100 µM | GI50 [43]: 2.02 µM | TGI [43]: 4.72 µM | GI50 [44]: > 100 µM | TGI [44]: > 100 µM | GI50 [45]: 3.15 µM | TGI [45]: > 100 µM | GI50 [46]: 3.08 µM | TGI [46]: > 100 µM | GI50 [47]: 1.94 µM | TGI [47]: 4.53 µM | GI50 [48]: 3.16 µM | TGI [48]: 8.83 µM | GI50 [49]: > 100 µM | TGI [49]: > 100 µM | GI50 [50]: 1.91 µM | TGI [50]: 5 µM | GI50 [51]: 0.279 µM | TGI [51]: 2.93 µM | GI50 [52]: 1.48 µM | TGI [52]: 7.16 µM | GI50 [53]: 1.76 µM | TGI [53]: 3.92 µM | GI50 [54]: 2.53 µM | TGI [54]: > 100 µM | GI50 [55]: 1.18 µM | TGI [55]: 3.42 µM | GI50 [57]: > 100 µM | TGI [57]: > 100 µM
